In patent US8067620B2, “Dispiro 1,2,4-trioxolane antimalarials” (Medicines for Malaria Venture MMV, priority 2005, dated 2011):
In brackets after ≈: the same amount, converted by molar mass. Read-outs that look alike come from different tables or passages of the source.

What was measured:
[1] = system: ANKA strain of P. berghei; test: Single dose in vivo screen in P. berghei-infected NMRI mice; conditions: for Survival (days) 30 mg/kg SSV po / Activity (%) 30 mg/kg SSV po: single 30 mg/kg po dose in SSV one day post-infection; for Activity (%) 30 mg/kg SSV po: percent reduction in parasitemia on day three post-infection; for Cures 30 mg/kg SSV po: single 30 mg/kg po dose in SSV, cure = survival to day 30 post-infection, groups of five mice
Procedure: Activity of 1,2,4-trioxolanes against P. berghei in vivo. In the single dose in vivo screen, NMRI mice infected with the ANKA strain of P. berghei (groups of five mice) were treated one day post-infection with trioxolanes dissolved or suspended in standard suspending vehicle (SSV). The SSV consists of either 0.5% w/v carboxymethyl cellulose, 0.5% v/v benzyl alcohol, 0.4% v/v Tween 80, and 0.9% w/v sodium chloride in water or 0.5% hydroxypropylmethylcellulose 0.4% v/s Tween 80, and 0.5% v/v benzyl alcohol in water. […] Antimalarial activity was measured by percent reduction in parasitemia on day three post-infection and survival times compared to an untreated control group. Survival to day 30 post-infection is considered to be a cure in this model.

P. berghei = test: Prophylactic activity against P. berghei in vivo (mice dosed before infection); conditions: for Cures 24 h prior to infection (30 mg/kg) / Activity (%) 24 h prior to infection (30 mg/kg): single 30 mg/kg oral dose 24 h prior to infection; for Cures 24 h prior to infection (30 mg/kg) / Cures 48 h prior to infection (100 mg/kg) / Cures 72 h prior to infection (100 mg/kg) / Cures 96 h prior to infection (100 mg/kg): n=5 mice; for Activity (%) 24 h prior to infection (30 mg/kg) / Activity (%) 48 h prior to infection (100 mg/kg): parasitemia day 3 post-infection; for Cures 48 h prior to infection (100 mg/kg) / Activity (%) 48 h prior to infection (100 mg/kg): single 100 mg/kg oral dose 48 h prior to infection; for Activity (%) 72 h prior to infection (100 mg/kg) / Cures 72 h prior to infection (100 mg/kg): single 100 mg/kg oral dose 72 h prior to infection; for Activity (%) 96 h prior to infection (100 mg/kg) / Cures 96 h prior to infection (100 mg/kg): single 100 mg/kg oral dose 96 h prior to infection
Procedure: All groups (n=5 mice per group) including an untreated control group, were infected at the same time and parasitemia was determined for each animal on day 3 post-infection and compared with the level of parasitemia in control animals.

[2] = Blood stability studies in freshly collected rat blood; assay type: in vitro ADME; set-up: unit not given here
Procedure: Blood stability studies: Compounds were incubated at 37° C. in freshly collected rat blood. At selected time points, duplicate aliquots of the whole blood were sampled, centrifuged and the plasma assayed for parent compound by LC-MS.

[3] = Pharmacokinetic studies in rats (oral); assay type: in vivo, rat; conditions: oral 10 mg/kg; for Oral Bioavailability at 10 mg/kg (%): relative to an IV dose
Procedure: Pharmacokinetic studies in rats: Compounds were administered orally to rats (n=2) at a dose of 10 mg/kg in a suspension formulation containing hydroxypropylmethyl cellulose, Tween 80, benzyl alcohol, and water. […] Oral bioavailability for each compound was calculated relative to an IV dose for each compound in a suitable vehicle.

[4] = system: Embryonic red blood cells (RBCs); test: Rat whole embryo culture (WEC) model, embryotoxicity
Description: Embryonic red blood cells (RBCs) were the primary target leading to anemia and subsequent hypoxia in embryonic tissues.
Longo, M.; Zanoncelli, S.; Manera, D.; Brughera, M.; Colombo, P.; Lansen J.; Mazué, G.; Gomes, M.; Taylor W. R. J.; Olliaro, P. Effects of the Antimalarial Drug Dihydroartemisinin (DHA) on Rat Embryos In Vitro. Repro. Tox. 2006, 21, 83-93.

[5] = system: chloroquine-resistant K1 strain of Plasmodium falciparum; test: Activity against P. falciparum K1 strain in vitro; assay type: cell-based
Description: (§1) Activity of 1,2,4-trioxolanes against P. falciparum in vitro.

[6] = system: chloroquine-sensitive NF54 strain of Plasmodium falciparum; test: Activity against P. falciparum NF54 strain in vitro; assay type: cell-based
Description: as §1

[7] = P. falciparum K1, in vitro, first value of K1/NF54 cell, read-out: IC50 (ng/ml) K1
[8] = P. falciparum NF54, in vitro, second value of K1/NF54 cell, read-out: IC50 (ng/ml) NF54

Structure (SMILES) | Survival (days) 30 mg/kg SSV po [1] [days] | Activity (%) 30 mg/kg SSV po [1] [%] | Cures 30 mg/kg SSV po [1] | Cures 24 h prior to infection (30 mg/kg) (P. berghei) | Activity (%) 24 h prior to infection (30 mg/kg) (P. berghei) [%] | Cures 48 h prior to infection (100 mg/kg) (P. berghei) | Activity (%) 48 h prior to infection (100 mg/kg) (P. berghei) [%] | NOAEL for embryonic RBCs [4] [µg/mL] | Activity (%) 72 h prior to infection (100 mg/kg) (P. berghei) [%] | Cures 72 h prior to infection (100 mg/kg) (P. berghei) | further results
CC(C)(N)CNC(=O)C[C@H]1CC[C@]2(CC1)OO[C@]1(O2)C2CC3CC(C2)CC1C3 [OZ277, reference compound] | 8.0 | 99.7 | 0/5 | 0/5 | 13 | 0/5 | 0 | 0.2 | – | – | Stability in Rat Blood (t1/2) at 37° C. [2]: 0.8; In Vivo Oral t1/2 at 10 mg/kg [3]: 1.6 h; Oral Bioavailability at 10 mg/kg (%) [3]: 19%
CS(=O)(=O)O.NC1CCC(Oc2ccc(C3CCC4(CC3)OOC3(O4)C4CC5CC(C4)CC3C5)cc2)CC1 (stereo not drawn) [OZ493] | – | – | – | 3/5 | >99.9 | 5/5 | 99 | 1 | 99.9 | 5/5 | Activity (%) 96 h prior to infection (100 mg/kg) (P. berghei): 99.5%; Cures 96 h prior to infection (100 mg/kg) (P. berghei): 3/5; Stability in Rat Blood (t1/2) at 37° C. [2]: >17; In Vivo Oral t1/2 at 10 mg/kg ([3]; 10 mg/kg): 7.7 h; Oral Bioavailability at 10 mg/kg (%) ([3]; 10 mg/kg): 51%
CCN(CC)CCCC(C)Nc1ccnc2cc(Cl)ccc12 (stereo not drawn) [CQ, chloroquine, reference compound] | 9.6 | – | 0/5 | 0/5 | – | 0/5 | – | – | – | – | IC50 ([5]; K1 / NF54, read-out: IC50 (ng/ml) K1): 62 ng/mL (≈ 0.194 µM); IC50 ([6]; K1 / NF54, read-out: IC50 (ng/ml) NF54): 5.1 ng/mL (≈ 0.0159 µM)
CO[C@H]1O[C@@H]2O[C@@]3(C)CC[C@H]4[C@H](C)CC[C@@H]([C@H]1C)[C@@]24OO3 [AM, artemether, reference compound] | 9.0 | 99.7 | 0/5 | – | – | – | – | – | – | – | IC50 [5, 7]: 0.74 ng/mL (≈ 0.00248 µM); IC50 [6, 8]: 1.2 ng/mL (≈ 0.00402 µM)
OC(c1cc(C(F)(F)F)nc2c(C(F)(F)F)cccc12)C1CCCCN1 (stereo not drawn) [MQ, mefloquine, reference compound] | 21.8 | 99.6 | 0/5 | 3/5 | >99.9 | 3/5 | 99.9 | – | >99.9 | 0/5 | IC50 [5, 7]: 3 ng/mL (≈ 0.00793 µM); IC50 [6, 8]: 5.8 ng/mL (≈ 0.0153 µM)
C[C@@H]1CC[C@H]2[C@@H](C)C(=O)O[C@@H]3O[C@@]4(C)CC[C@@H]1[C@]32OO4 [artemisinin] | – | – | – | – | – | – | – | 0.1 | – | – | –
CS(=O)(=O)O.c1cc(C2CCC3(CC2)OOC2(O3)C3CC4CC(C3)CC2C4)ccc1OCCN1CCOCC1 (stereo not drawn) [OZ439] | – | – | – | 5/5 | 99.8 | 5/5 | 99.6 | 5 | 99.6 | 5/5 | Activity (%) 96 h prior to infection (100 mg/kg) (P. berghei): 99.5%; Cures 96 h prior to infection (100 mg/kg) (P. berghei): 5/5; Oral Bioavailability at 10 mg/kg (%) [3]: 94%
C[C@H]1[C@@H](O)O[C@@H]2O[C@@]3(C)CC[C@H]4[C@H](C)CC[C@@H]1[C@@]24OO3 [dihydroartemisinin] | – | – | – | – | – | – | – | 0.01 | – | – | –
